Measured values published in PubChem BioAssay (NCI).
Several values for one entry are separate records, joined by “and”; a condition that tells them apart may be missing. Equal values may be shown once.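 In this assay, cells in 96-well plates receive the compound at five concentrations for 48 hours. Endpoints are linearly interpolated between the surrounding concentrations. GI50: concentration for 50% inhibition of growth. TGI denotes the concentration required for complete inhibition of growth.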

Legend:
Assay in all cases: NCI anticancer screen, dose series, 48 h
MOLT-4 leukemia = test system: MOLT-4 leukemia
SR leukemia = test system: SR leukemia
K-562 leukemia = test system: K-562 leukemia
MALME-3M melanoma = test system: MALME-3M melanoma
SK-MEL-5 melanoma = test system: SK-MEL-5 melanoma
OVCAR-8 ovarian = test system: OVCAR-8 ovarian
HOP-92 NSCLC = test system: HOP-92 NSCLC
ACHN renal = test system: ACHN renal
U251 CNS = test system: U251 CNS
NCI-H226 lung = test system: NCI-H226 lung

O=S(=O)(CCCl)c1ccc(Cl)cc1
GI50 (MOLT-4 leukemia): 3 µM | TGI (MOLT-4 leukemia): > 100 µM | GI50 (SR leukemia): 3.41 µM | TGI (SR leukemia): > 100 µM | GI50 (K-562 leukemia): 3.98 µM | TGI (K-562 leukemia): > 100 µM | GI50 (MALME-3M melanoma): 2.23 µM | TGI (MALME-3M melanoma): 7.2 µM | GI50 (SK-MEL-5 melanoma): 6.27 µM | TGI (SK-MEL-5 melanoma): 20.4 µM | GI50 (OVCAR-8 ovarian): 3.14 µM | TGI (OVCAR-8 ovarian): 12.9 µM | GI50 (HOP-92 NSCLC): 2.2 µM | TGI (HOP-92 NSCLC): 6.57 µM | GI50 (ACHN renal): 3.52 µM | TGI (ACHN renal): 13.1 µM | GI50 (U251 CNS): 10.1 µM | TGI (U251 CNS): 27.5 µM | GI50 (NCI-H226 lung): 16 µM | TGI (NCI-H226 lung): > 100 µM

CSC(=S)N/N=C/c1nccc2ccccc12
TGI (MOLT-4 leukemia): 3.65 µM | TGI (SR leukemia): 18.8 µM | TGI (K-562 leukemia): 14.3 µM | TGI (MALME-3M melanoma): 32.7 µM | TGI (SK-MEL-5 melanoma): 2.66 µM | TGI (OVCAR-8 ovarian): 4.96 µM | TGI (HOP-92 NSCLC): 6.36 µM | TGI (ACHN renal): 12.2 µM | TGI (U251 CNS): 6.99 µM | TGI (NCI-H226 lung): 12 µM

N#CNC(N)=Nc1ccc(Cl)cc1
TGI (MOLT-4 leukemia): > 100 µM | TGI (SR leukemia): > 100 µM | TGI (K-562 leukemia): > 100 µM | TGI (MALME-3M melanoma): > 100 µM | TGI (SK-MEL-5 melanoma): > 100 µM | TGI (OVCAR-8 ovarian): > 100 µM | TGI (HOP-92 NSCLC): > 100 µM | TGI (ACHN renal): > 100 µM | TGI (U251 CNS): > 100 µM | TGI (NCI-H226 lung): > 100 µM

Cc1cc(N(CCC#N)CCC#N)ccc1/C=C(\NC(=O)/C=C/c1ccccc1)C(=O)NN
TGI (MOLT-4 leukemia): > 100 µM | TGI (SR leukemia): > 100 µM | TGI (K-562 leukemia): > 100 µM | TGI (MALME-3M melanoma): > 100 µM | TGI (SK-MEL-5 melanoma): > 100 µM | TGI (OVCAR-8 ovarian): > 100 µM | TGI (HOP-92 NSCLC): 63.7 µM | TGI (ACHN renal): > 100 µM | TGI (U251 CNS): > 78 µM | TGI (NCI-H226 lung): > 90.2 µM

O=C1OCC2=C1C(c1ccccc1)c1cc3c(cc1N2CCO)OCO3 (stereo not given)
GI50 (MOLT-4 leukemia): > 50 µM | TGI (MOLT-4 leukemia): > 50 µM | GI50 (SR leukemia): 3.49 µM | TGI (SR leukemia): > 50 µM | GI50 (K-562 leukemia): 1.91 µM | TGI (K-562 leukemia): > 50 µM | GI50 (MALME-3M melanoma): > 50 µM | TGI (MALME-3M melanoma): > 50 µM | GI50 (SK-MEL-5 melanoma): 2.78 µM | TGI (SK-MEL-5 melanoma): > 50 µM | GI50 (OVCAR-8 ovarian): 12.1 µM | TGI (OVCAR-8 ovarian): > 50 µM | GI50 (HOP-92 NSCLC): 13.9 µM | TGI (HOP-92 NSCLC): > 50 µM | GI50 (ACHN renal): 30.5 µM | TGI (ACHN renal): > 50 µM | GI50 (U251 CNS): 3.01 µM | TGI (U251 CNS): > 50 µM | GI50 (NCI-H226 lung): > 50 µM | TGI (NCI-H226 lung): > 50 µM

CCC1=CC2CN(C1)Cc1c([nH]c3ccccc13)[C@@](C(=O)OC)(c1cc3c(cc1OC)N(C)[C@H]1[C@@](O)(C(=O)OC)[C@H](OC(C)=O)[C@]4(CC)C=CCN5CC[C@]31[C@@H]54)C2 (stereo not given in full)
GI50 (MOLT-4 leukemia): 0.0105 µM | TGI (MOLT-4 leukemia): 11.1 µM and 13.9 µM | GI50 (SR leukemia): < 0.005 µM | TGI (SR leukemia): 9.27 µM | GI50 (K-562 leukemia): < 0.005 µM | TGI (K-562 leukemia): 16.6 µM and 15.2 µM | GI50 (MALME-3M melanoma): < 0.005 µM | TGI (MALME-3M melanoma): 8.68 µM | GI50 (SK-MEL-5 melanoma): 0.00873 µM | TGI (SK-MEL-5 melanoma): 0.501 µM and 0.208 µM | GI50 (OVCAR-8 ovarian): 0.0201 µM and 0.0306 µM | TGI (OVCAR-8 ovarian): 50 µM and > 100 µM | GI50 (HOP-92 NSCLC): 1.51 µM | TGI (HOP-92 NSCLC): 97.1 µM | GI50 (ACHN renal): 0.407 µM and 1.27 µM | TGI (ACHN renal): 50 µM and > 100 µM | GI50 (U251 CNS): < 0.005 µM | TGI (U251 CNS): 6.71 µM and 21 µM | GI50 (NCI-H226 lung): 19.8 µM | TGI (NCI-H226 lung): 50 µM

O=C(N[C@@H](C[Se][Se]C[C@H](NC(=O)c1ccc(Br)cc1F)C(=O)O)C(=O)O)c1ccc(Br)cc1F
GI50 (MOLT-4 leukemia): > 100 µM | TGI (MOLT-4 leukemia): > 100 µM | GI50 (SR leukemia): 95.4 µM | TGI (SR leukemia): > 100 µM | GI50 (K-562 leukemia): > 100 µM | TGI (K-562 leukemia): > 100 µM | GI50 (MALME-3M melanoma): > 100 µM | TGI (MALME-3M melanoma): > 100 µM | GI50 (SK-MEL-5 melanoma): > 100 µM | TGI (SK-MEL-5 melanoma): > 100 µM | GI50 (OVCAR-8 ovarian): > 100 µM | TGI (OVCAR-8 ovarian): > 100 µM | GI50 (HOP-92 NSCLC): > 100 µM | TGI (HOP-92 NSCLC): > 100 µM | GI50 (ACHN renal): > 100 µM | TGI (ACHN renal): > 100 µM | GI50 (U251 CNS): > 100 µM | TGI (U251 CNS): > 100 µM | GI50 (NCI-H226 lung): > 100 µM | TGI (NCI-H226 lung): > 100 µM

CC(C)(Oc1ccc(/C=C/C(=O)c2ccc(Cl)cc2)cc1)C(=O)Nc1c(Cl)cccc1Cl
TGI (MOLT-4 leukemia): 96.5 µM | TGI (SR leukemia): > 100 µM | TGI (K-562 leukemia): > 100 µM | TGI (MALME-3M melanoma): 40.4 µM | TGI (SK-MEL-5 melanoma): 37 µM | TGI (OVCAR-8 ovarian): 30.5 µM | TGI (HOP-92 NSCLC): 91.5 µM | TGI (ACHN renal): 53 µM | TGI (U251 CNS): 26.7 µM | TGI (NCI-H226 lung): 51.5 µM
